Data from patent US20190048052A1, “ANTI-MICROBIAL PEPTIDES AND COATINGS” (Board of Regents of the University of Nebraska, priority 2016, published 2019).
≈ marks a conversion by molar mass, not a printed value. Residues, ends and D or L forms follow the SMILES beside them.

Legend:
HeLa CCL-2 cells = assay: Cytotoxicity of PET-CysTetraF2W-RR (MTS); assay type: cell-based, human
Procedure: HeLa CCL-2 cells from American Type Culture Collection (ATCC) were maintained in DMEM high glucose media with 4 mM L-glutamine (NyClone) and 100 U/mL penicillin, 100 μg/mL streptomycin (pen/strep; p/s) (Life Technologies), and 10% (v/v) inactivated fetal bovine serum (FBS, NyClone), DMEM with 10% FBS, p/s. Cells were grown in 5% CO2 at 37° C. and were detached from culturing dish at 100% confluency using 0.025% trypsin-EDTA (NyClone) treatment, seeded (18,000 cells/well) in 24-well plates (Corning Life Science) and grown overnight in 200 μL DMEM media until 70% confluency. Then the old media were replaced with 500 μL of fresh DMEM media and continued to cultivate for 1 hour with the surfaces with or without peptides (1.0×1.0 cm). 200 μL of the liquid content of each well was taken out and mixed with 20 μL of MTS. The plate was further incubated for another 2 hours at 37° C. To quantify the cytotoxicity, 100 μL of the solution was placed in a 96-well plate and the absorbance was measured on a ChroMate® reader (Awareness Technology) at 492 nm. For comparison, the same amounts of soluble peptides was used to treat them in the same way as described above. Water and 0.2% SDS were used as negative and positive controls, respectively.

S. aureus USA300 [1] = assay: Growth inhibition in TSB media (FIG. 15A); assay type: cell-based, Staphylococcus aureus; details: 3.1 μM (printed 3.1 LM), 37° C.
Procedure: FIGS. 15A and 15B show the growth inhibition (FIG. 15A) and propidium iodide-based membrane permeation (FIG. 15B) of S. aureus USA300 in TSB media by 3.1 μM of TetraF2W-RR and its single arginine variants (Table 8) at 37° C. with shaking at 100 rpm.
Fluorescence spectroscopy was also used to follow bacterial killing. In brief, μL of serially diluted 10× peptide concentrations were done in 96-well coming COSTAR microtiter plates. Propidium iodide at a fixed concentration of 20 μM per well was added to each well which was finally incubated with 88 μL of S. aureus USA300 (with a final OD600 0.1) with continuous shaking at 100 rpm with meander corner well shaking, 37° C. in a FLUOstar® Omega (BMG LABTECH Inc., NC) microplate reader. The plates were read every 5 minutes for a total duration of 2 hours with excitation and emission wavelengths at 584 nm and 620 nm, respectively.

S. aureus USA300 [2] = assay type: cell-based, Staphylococcus aureus
Procedure: (§1) The antimicrobial activity of peptides was evaluated using a standard broth microdilution protocol. In brief, exponential phase bacteria at 10^6 CFU were incubated with serially diluted peptides overnight for ˜20 hours at 37° C. The plates were read on a ChroMate® 4300 Microplate Reader at 630 nm (GMI, Ramsey, Minn.).

human red blood cells = assay: Hemolytic ability (Example 3); assay type: cell-based; details: concentration that causes 50% hemolysis
Procedure: Hemolytic analysis of selected peptides was performed using an established protocol. Briefly, human blood cells (UNMC Blood Bank) were washed three times with phosphate buffer saline (PBS) and diluted to a 2% solution. After peptide treatment, incubation at 37° C. for one hour, and centrifugation at 13,000 rpm, aliquots of the supernatant were transferred to a fresh 96-well microplate. To assess peptide cytotoxicity, the amount of hemoglobin released was measured at 545 nm. The percent lysis was calculated by assuming 100% release when human blood cells were treated with 1% TRITON™ X-100, and 0% release when incubated with PBS buffer.

E. coli ATCC 25922 = assay type: cell-based, Escherichia coli; details: ATCC 25922, 20 h
Procedure: as §1

S. aureus USA300 [3] = assay type: cell-based, Staphylococcus aureus; details: 12.5 μM
Procedure: Two types of experiments were conducted to evaluate the anti-biofilm activity of these peptides against S. aureus USA300 grown under a static condition for 24 hours to form established biofilms in presence of tryptic soy broth (TSB). The experiment was set up using a flat bottom, 96-well, polystyrene microtiter plates (Corning, COSTAR). In short, S. aureus USA300 (10^5 CFU/mL) in fresh TSB media was made from an exponentially growing culture. 200 μL of this bacterial culture was added to each well of the microtiter plates. The plates are then incubated at 37° C. for 24 hours to allow biofilm formation. Media was then carefully removed followed by washing with sterile 1×PBS to remove any unattached bacteria. Solution containing μL of 10× peptide solution and 180 μL of fresh TSB were added. The plates were again incubated at 37° C. for another 24 hours. To measure the extent of biofilm disruption by the peptides as a function of biofilm reduction, crystal violet staining was performed. Media was pipetted out and the wells were carefully washed with 200 μL of PBS to remove the loosely attached cells. Subsequently, 200 μL of 99% methanol was added for fixation and the plates were allowed to sit for 15 minutes. The plates were finally aspirated and dried. Lastly, staining was done with 200 μL of 1% crystal violet in water for 5 minutes. Excess stain was gently rinsed off with tap water, and plates were air-dried. Further, stains were solubilized in 200 μL of 33% glacial acetic acid followed by colorimetric measurement at 600 nm on a Chromate® microtiter plate reader. The amounts of biofilm growth with and without compound treatments were calculated.
In addition, live cell contents of the peptide acted biofilms was estimated by XTT [2,3-bis(2-methyloxy-4-nitro-5-sulfophenyl)-2H-tertazolium-5-carboxanilide]assay by following the manufacturer's instructions with modifications. A 10% XTT solution in TSB media was added to each well and the plates were again incubated for 2 hours at 37° C. Absorbance at 450 nm (only media with XTT containing wells served as the blank) was obtained using Chromate® microtiter plate reader. Percentage of biofilm reduction for the peptide was plotted assuming 100% biofilm growth is achieved on the bacterial wells without peptide treatment.

S. aureus ATCC 25923 = details: Abbassi et al. (2010); cited from earlier work
S. aureus USA300 [4] = assay type: cell-based, Staphylococcus aureus; details: Table 2, first S. aureus USA300 column
Procedure, shortened: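 Broth microdilution: exponential-phase bacteria at 10^6 CFU incubated with serially diluted peptides ~20 hours at 37° C, read at 630 nm to give MICs. For S. aureus USA300, effects of up to 10% human serum, pH 6.8/7.4/8.0 and 150 mM NaCl also tested.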

[5] = tested on: E. coli ATCC 25922 and ML-35p strains; details: Abbassi et al. (2010); cited from earlier work
B. megaterium = details: Abbassi et al. (2010); cited from earlier work
E. coli ATCC 35218 = details: Abbassi et al. (2010); cited from earlier work

CC[C@H](C)[C@H](NC(=O)[C@H](CCCNC(=N)N)NC(=O)[C@H](CCCNC(=N)N)NC(=O)[C@H](CC(C)C)NC(=O)[C@H](Cc1c[nH]c2ccccc12)NC(=O)[C@H](Cc1c[nH]c2ccccc12)NC(=O)[C@H](Cc1c[nH]c2ccccc12)NC(=O)[C@@H](N)CS)C(=O)N[C@@H](Cc1c[nH]c2ccccc12)C(N)=O [CysTetraF2W-RR] (H-CWWWLRRIW-NH2; N-terminus and C-terminus assumed)
toxicity to HeLa CCL-2 cells (HeLa CCL-2 cells): nontoxic

CC[C@H](C)[C@H](NC(=O)[C@H](CCCNC(=N)N)NC(=O)[C@H](CCCNC(=N)N)NC(=O)[C@H](CCCNC(=N)N)NC(=O)[C@H](Cc1c[nH]c2ccccc12)NC(=O)[C@H](Cc1c[nH]c2ccccc12)NC(=O)[C@@H](N)Cc1c[nH]c2ccccc12)C(=O)N[C@@H](Cc1c[nH]c2ccccc12)C(N)=O [Peptide L4R, WWWRRRIW] (H-WWWRRRIW-NH2; N-terminus assumed)
growth inhibition of S. aureus USA300 (S. aureus USA300 [1]): also potent
loss in activity compared to the WT (S. aureus USA300 [2]; MRSA USA300): four-fold
S. aureus (MIC) (S. aureus USA300 [2]; S. aureus USA300): 12.5 µM
HL50 (human red blood cells): >200 µM
E. coli (MIC) (E. coli ATCC 25922): 25 µM
killing in preformed biofilms (XTT) (S. aureus USA300 [3]): 20%

CC[C@H](C)[C@H](NC(=O)[C@H](CCCNC(=N)N)NC(=O)[C@H](CO)NC(=O)[C@H](CC(C)C)NC(=O)[C@H](Cc1ccccc1)NC(=O)[C@H](Cc1ccccc1)NC(=O)[C@@H](N)Cc1ccccc1)C(=O)N[C@@H](Cc1ccccc1)C(N)=O [Temporin-SHf, FFFLSRIF] (H-FFFLSRIF-NH2; N-terminus and C-terminus assumed)
MIC S. aureus ATCC 25923 (S. aureus ATCC 25923): 12.5 µM (≈ 13.4 µg/mL)
MIC S. aureus USA300 (S. aureus USA300 [4]): 25 µM (≈ 26.9 µg/mL)
MIC E. coli ATCC 25922 and ML-35p strains [5]: 25 to 30 µM
MIC B. megaterium (B. megaterium): 3 µM (≈ 3.23 µg/mL)
MIC E. coli ATCC 35218 (E. coli ATCC 35218): > 200 µM
